Where “and” joins values, the source holds several entries; their conditions need not be identical. Equal values may be shown once. Read-outs that look alike come from different tables or passages of the source. Bridge positions count the residues as written; N and C are the ends. Peptide text beside a SMILES is read from it.
Molecular target: T1, soluble human FcRn (Homo sapiens, UniProt P55899)
T1 construct: Soluble human FcRn was expressed and purified by Biogen-Idec as previously described (29)
T1 sequence (P55899 24-297 limits assumed): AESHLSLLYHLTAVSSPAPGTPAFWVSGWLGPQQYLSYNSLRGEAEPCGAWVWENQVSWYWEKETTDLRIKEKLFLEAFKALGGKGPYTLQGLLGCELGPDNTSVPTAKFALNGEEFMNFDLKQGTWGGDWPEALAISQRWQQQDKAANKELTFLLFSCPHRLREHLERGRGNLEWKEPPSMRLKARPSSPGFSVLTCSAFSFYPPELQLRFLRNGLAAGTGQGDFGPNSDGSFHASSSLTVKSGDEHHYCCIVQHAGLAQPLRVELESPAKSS
T1 sequence (P61769 21-119 partner): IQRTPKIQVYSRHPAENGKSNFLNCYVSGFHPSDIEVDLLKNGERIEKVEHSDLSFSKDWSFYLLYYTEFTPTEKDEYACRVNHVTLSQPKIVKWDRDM
Assay: SPR (Biacore) affinity of peptides for immobilized soluble human FcRn
Format: binding
Procedure: SPR analyses were conducted using a Biacore 3000 or T100 instrument. Research-grade CM5 sensor chips and all coupling reagents for immobilization were purchased from Biacore. All proteins were cross-linked to the dextran surface of a CM5 sensor chip by standard amine coupling chemistry as recommended by Biacore. […] Binding experiments were performed at pH 6.0 or 7.4 using 50 mM phosphate, 100 mM sodium chloride and 0.01% surfactant P20. […] Bound albumin protein was then allowed to dissociate from the chip for 5 minutes with running buffer. Any remaining albumin was removed from the chip with a 60 second injection (2 cycles) of pH 8.0 Tris-HCl regeneration buffer (1 M Tris pH 8.0) at 25 μL/min flow rate. The binding responses recorded near the end of the association phase were plotted as a function of concentration. Equilibrium dissociation constants (KD), were derived from sensorgrams using the 1:1 binding model of BIAevaluation software 4.1.

[1] = Table 1, pH 6, shFcRn immobilized on the sensor chip, steady state fit, read-out: Kd, pH 6** Biacore
[2] = Table 2, pH 6, immobilized shFcRn, data fit steady state or 2 site, read-out: Kd, pH 6** Biacore
[3] = Table 2, pH 7.4, data only 100 uM, therefore Kd may be higher, read-out: Kd, pH 7.4 Biacore

## CSCC[C@@H]1NC(=O)[C@H](CCC(=O)O)NC(=O)[C@H](CCC(=O)O)NC(=O)[C@H](CC(=O)O)NC(=O)[C@H](Cc2c[nH]c3ccccc23)NC(=O)[C@H](Cc2c[nH]c3ccccc23)NC(=O)[C@@H](NC(=O)[C@H](Cc2c[nH]cn2)NC(=O)[C@H](CCSC)NC(=O)[C@@H](NC(C)=O)C(C)C)CSSC[C@@H](C(=O)N[C@@H](CCCNC(=N)N)C(=O)N[C@@H](C)C(=O)N[C@@H](Cc2ccccc2)C(N)=O)NC(=O)[C@H](CC(C)C)NC1=O [SYN1533] (Ac-VMHCWWDEEMLCRAF-NH2; disulfide 4-12 (inferred))
Table 2
  Kd Ratio 7.4/6.0: 106

## CC(=O)N[C@@H](CCCNC(=N)N)C(=O)N[C@@H](Cc1ccc(O)cc1)C(=O)N[C@@H](Cc1ccccc1)C(=O)N[C@H]1CSSC[C@@H](C(=O)N[C@@H](CCC(=O)O)C(=O)N[C@@H](CCC(=O)O)C(=O)N[C@H](C(N)=O)C(C)C)NC(=O)[C@H](Cc2c[nH]c3ccccc23)NC(=O)CNC(=O)[C@H](Cc2c[nH]cn2)NC(=O)[C@H](C)NC(=O)[C@H](Cc2c[nH]c3ccccc23)NC(=O)[C@H](CCCCN)NC(=O)[C@H]([C@@H](C)O)NC1=O [SYN1548] (Ac-RYFCTKWAHGWCEEV-NH2; disulfide 4-12 (inferred))
[1]
  Kd: 9.3 µM

## CSCC[C@H](NC(=O)[C@@H](NC(C)=O)C(C)C)C(=O)N[C@@H](Cc1c[nH]cn1)C(=O)N[C@H]1CSSC[C@@H](C(=O)N[C@@H](CC(=O)O)C(=O)N[C@@H](Cc2ccc(O)cc2)C(=O)NCC(N)=O)NC(=O)[C@H](CCCNC(=N)N)NC(=O)[C@H](Cc2ccccc2)NC(=O)[C@H](CCC(=O)O)NC(=O)[C@H](CCC(=O)O)NC(=O)[C@H](CC(=O)O)NC(=O)[C@H](Cc2c[nH]c3ccccc23)NC(=O)[C@H](Cc2ccccc2)NC1=O [SYN1381] (Ac-VMHCFWDEEFRCDYG-NH2; disulfide 4-12 (inferred))
Table 2
  Kd Ratio 7.4/6.0: 82

## CSCC[C@@H]1NC(=O)[C@H](CCC(=O)O)NC(=O)[C@H](CCC(=O)O)NC(=O)[C@H](CC(=O)O)NC(=O)[C@H](Cc2c[nH]c3ccccc23)NC(=O)[C@H](Cc2ccccc2)NC(=O)[C@@H](NC(=O)[C@H](CCCCN)NC(=O)[C@H](CCSC)NC(=O)[C@@H](NC(C)=O)C(C)C)CSSC[C@@H](C(=O)N[C@@H](CCCNC(=N)N)C(=O)N[C@@H](C)C(=O)N[C@@H](Cc2ccccc2)C(N)=O)NC(=O)[C@H](CC(C)C)NC1=O [SYN1535] (Ac-VMKCFWDEEMLCRAF-NH2; disulfide 4-12 (inferred))
Table 2
  Kd Ratio 7.4/6.0: 35

## CSCC[C@@H]1NC(=O)[C@H](CCC(=O)O)NC(=O)[C@H](CCC(=O)O)NC(=O)[C@H](CC(=O)O)NC(=O)[C@H](Cc2c[nH]c3ccccc23)NC(=O)[C@H](Cc2c[nH]c3ccccc23)NC(=O)[C@@H](NC(=O)[C@H](CCCNC(=N)N)NC(=O)[C@H](CCSC)NC(=O)[C@@H](NC(C)=O)C(C)C)CSSC[C@@H](C(=O)N[C@@H](CCCNC(=N)N)C(=O)N[C@@H](C)C(=O)N[C@@H](Cc2ccccc2)C(N)=O)NC(=O)[C@H](CC(C)C)NC1=O [SYN1534] (Ac-VMRCWWDEEMLCRAF-NH2; disulfide 4-12 (inferred))
Table 2
  Kd Ratio 7.4/6.0: 125

## CSCC[C@H](NC(=O)[C@H](Cc1ccc(O)cc1)NC(C)=O)C(=O)N[C@H](C(=O)N[C@H]1CSSC[C@@H](C(=O)N[C@@H](C)C(=O)N[C@@H](Cc2ccc(O)cc2)C(=O)N[C@H](C(N)=O)C(C)C)NC(=O)[C@H](CO)NC(=O)[C@H](Cc2ccccc2)NC(=O)CNC(=O)[C@H](CC(=O)O)NC(=O)[C@H](CC(=O)O)NC(=O)[C@H](Cc2c[nH]c3ccccc23)NC(=O)[C@H](CCCCN)NC1=O)[C@@H](C)O [SYN1154] (Ac-YMTCKWDDGFSCAYV-NH2; disulfide 4-12 (inferred))
Table 2
  Kd Ratio 7.4/6.0: 20
[2]
  Kd: 1.5 µM and 0.46 µM

## CSCC[C@H](NC(=O)[C@H](Cc1ccc(O)cc1)NC(C)=O)C(=O)N[C@H](C(=O)N[C@H]1CSSC[C@@H](C(=O)N[C@@H](CCC(=O)O)C(=O)N[C@@H](C)C(=O)N[C@H](C(N)=O)C(C)C)NC(=O)[C@H](CO)NC(=O)[C@H](Cc2ccccc2)NC(=O)CNC(=O)[C@H](CC(=O)O)NC(=O)[C@H](CC(=O)O)NC(=O)[C@H](Cc2c[nH]c3ccccc23)NC(=O)[C@H](CCCCN)NC1=O)[C@@H](C)O [SYN1155] (Ac-YMTCKWDDGFSCEAV-NH2; disulfide 4-12 (inferred))
Table 2
  Kd Ratio 7.4/6.0: 9.8
[3]
  Kd: 17.3 µM

## CSCC[C@H](NC(=O)[C@@H](NC(C)=O)C(C)C)C(=O)N[C@@H](Cc1c[nH]cn1)C(=O)N[C@H]1CSSC[C@@H](C(=O)N[C@@H](CC(=O)O)C(=O)N[C@@H](CCC(N)=O)C(=O)NCC(N)=O)NC(=O)[C@H](CCCCN)NC(=O)[C@H](Cc2ccccc2)NC(=O)[C@H](CCC(=O)O)NC(=O)[C@H](CCC(=O)O)NC(=O)[C@H](CC(=O)O)NC(=O)[C@H](Cc2c[nH]c3ccccc23)NC(=O)[C@H](Cc2ccccc2)NC1=O [SYN1197] (Ac-VMHCFWDEEFKCDQG-NH2; disulfide 4-12 (inferred))
Table 2
  Kd Ratio 7.4/6.0: 84

## CSCC[C@H](NC(=O)[C@@H](NC(C)=O)C(C)C)C(=O)N[C@@H](Cc1c[nH]cn1)C(=O)N[C@H]1CSSC[C@@H](C(=O)N[C@@H](CCC(=O)O)C(=O)N[C@@H](CCC(N)=O)C(=O)NCC(N)=O)NC(=O)[C@H](CCCCN)NC(=O)[C@H](Cc2ccccc2)NC(=O)[C@H](CCC(=O)O)NC(=O)[C@H](CCC(=O)O)NC(=O)[C@H](CC(=O)O)NC(=O)[C@H](Cc2c[nH]c3ccccc23)NC(=O)[C@H](Cc2ccccc2)NC1=O [SYN1258] (Ac-VMHCFWDEEFKCEQG-NH2; disulfide 4-12 (inferred))
Table 2
  Kd Ratio 7.4/6.0: 65

## CSCC[C@@H]1NC(=O)[C@H](CCC(=O)O)NC(=O)[C@H](CCC(=O)O)NC(=O)[C@H](CC(=O)O)NC(=O)[C@H](Cc2c[nH]c3ccccc23)NC(=O)[C@H](Cc2c[nH]c3ccccc23)NC(=O)[C@@H](NC(=O)[C@H](CCCCN)NC(=O)[C@H](CCSC)NC(=O)[C@@H](NC(=O)CNC(=O)[C@H](C)NC(C)=O)C(C)C)CSSC[C@@H](C(=O)N[C@@H](CCCNC(=N)N)C(=O)N[C@@H](C)C(=O)N[C@@H](Cc2ccccc2)C(=O)NCC(=O)N[C@H](C(=O)NCC(=O)NCC(=O)NCC(=O)N[C@@H](CCCCN)C(N)=O)[C@@H](C)O)NC(=O)[C@H](CC(C)C)NC1=O [SYN531] (Ac-AGVMKCWWDEEMLCRAFGTGGGK-NH2; disulfide 6-14 (inferred))
Table 2
  Kd Ratio 7.4/6.0: 99
[2]
  Kd: 0.45 µM and 0.3 µM

## CSCC[C@H](NC(=O)[C@H](Cc1ccc(O)cc1)NC(C)=O)C(=O)N[C@@H](Cc1c[nH]cn1)C(=O)N[C@H]1CSSC[C@@H](C(=O)N[C@@H](CC(=O)O)C(=O)N[C@@H](CCC(N)=O)C(=O)NCC(N)=O)NC(=O)[C@H](CCCCN)NC(=O)[C@H](Cc2ccccc2)NC(=O)[C@H](CCC(=O)O)NC(=O)[C@H](CCC(=O)O)NC(=O)[C@H](CC(=O)O)NC(=O)[C@H](Cc2c[nH]c3ccccc23)NC(=O)[C@H](Cc2ccccc2)NC1=O [SYN1256] (Ac-YMHCFWDEEFKCDQG-NH2; disulfide 4-12 (inferred))
Table 2
  Kd Ratio 7.4/6.0: 69

## CC(=O)N[C@@H](C)C(=O)NCC(=O)N[C@@H](CCCNC(=N)N)C(=O)N[C@@H](Cc1ccc(O)cc1)C(=O)N[C@@H](Cc1ccccc1)C(=O)N[C@H]1CSSC[C@@H](C(=O)N[C@@H](CCC(=O)O)C(=O)N[C@@H](CCC(=O)O)C(=O)N[C@H](C(=O)NCC(=O)N[C@H](C(=O)NCC(=O)NCC(N)=O)[C@@H](C)O)C(C)C)NC(=O)[C@H](Cc2c[nH]c3ccccc23)NC(=O)CNC(=O)[C@H](Cc2c[nH]cn2)NC(=O)[C@H](CCCCN)NC(=O)[C@H](Cc2c[nH]c3ccccc23)NC(=O)[C@H](CCCCN)NC(=O)[C@H]([C@@H](C)O)NC1=O [SYN1708]
[1]
  Kd: 0.57 µM

## CC(=O)N[C@@H](CCCNC(=N)N)C(=O)N[C@@H](Cc1ccc(O)cc1)C(=O)N[C@@H](Cc1ccccc1)C(=O)N[C@H]1CSSC(C)(C)[C@@H](C(=O)N[C@@H](CCC(=O)O)C(=O)N[C@@H](CCC(=O)O)C(=O)N[C@H](C(N)=O)C(C)C)NC(=O)[C@H](Cc2c[nH]c3ccccc23)NC(=O)CNC(=O)[C@H](Cc2c[nH]cn2)NC(=O)[C@H](CCCCN)NC(=O)[C@H](Cc2c[nH]c3ccccc23)NC(=O)[C@H](CCCCN)NC(=O)[C@H]([C@@H](C)O)NC1=O [SYN1556]
[1]
  Kd: > 100 µM

## CC(=O)N[C@@H](CCCNC(=N)N)C(=O)N[C@@H](Cc1ccc(O)cc1)C(=O)N[C@@H](Cc1ccccc1)C(=O)N[C@@H](C)C(=O)N[C@H](C(=O)N[C@@H](CCCCN)C(=O)N[C@@H](Cc1c[nH]c2ccccc12)C(=O)N[C@@H](CCCCN)C(=O)N[C@@H](Cc1c[nH]cn1)C(=O)NCC(=O)N[C@@H](Cc1c[nH]c2ccccc12)C(=O)N[C@@H](C)C(=O)N[C@@H](CCC(=O)O)C(=O)N[C@@H](CCC(=O)O)C(=O)N[C@H](C(N)=O)C(C)C)[C@@H](C)O [SYN1558] (Ac-RYFATKWKHGWAEEV-NH2)
[1]
  Kd: > 100 µM

## CSCC[C@@H]1NC(=O)[C@H](CCC(=O)O)NC(=O)[C@H](CCC(=O)O)NC(=O)[C@H](CC(=O)O)NC(=O)[C@H](Cc2c[nH]c3ccccc23)NC(=O)[C@H](Cc2c[nH]c3ccccc23)NC(=O)[C@@H](NC(=O)[C@H](CCCCN)NC(=O)[C@H](CCSC)NC(=O)[C@@H](NC(C)=O)C(C)C)CSSC[C@@H](C(=O)N[C@@H](CCCNC(=N)N)C(=O)N[C@@H](C)C(=O)N[C@@H](Cc2ccccc2)C(N)=O)NC(=O)[C@H](CC(C)C)NC1=O [SYN1532] (Ac-VMKCWWDEEMLCRAF-NH2; disulfide 4-12 (inferred))
Table 2
  Kd Ratio 7.4/6.0: 112
[3]
  Kd: 17.3 µM

— patent US10588935B2, “FC receptor (FcRn) binding peptides and uses thereof” (THE BRIGHAM AND WOMEN'S HOSPITAL, INC., priority 2013, dated 2020)
